Results: patent US5683668A, “Method of generating nitric oxide gas using nitric oxide complexes” (The United States of America as represented by the …, priority 1996, dated 1997)
Like-named read-outs stand apart in the source and are kept apart here.

Assays:
[1] = Stability of the adducts as solids; type: physicochemical; conditions: applicant's statements; room temperature, closed containers or air
[2] = unless stored at -78° C.; prior art salts; cited from earlier work
[3] = % NO by weight of the NO complexes; type: physicochemical
[4] = NO release half-life by disappearance of UV absorption in phosphate buffer; type: physicochemical
Experimental: Ultraviolet data were obtained in 0.01M NaOH to avoid this degradation problem. […] Kinetic data were obtained by diluting stock solutions (0.01M NaOH) of each compound with pH 7.4 phosphate buffer (0.1M) as needed to produce final solutions having compound concentrations in the range of 90-120 μM.

[5] = Equivalents of NO released at 22° C.; type: physicochemical
[6] = % NO yield on acid release, thermal energy analyzer (TEA); type: physicochemical; conditions: weight percent of the theoretical maximum, dilute aqueous HCl
Experimental: NO gas was generated from compounds 2, 6, 10, 11, and 14 of Example 1, as well as H2 N(CH2)3 N[N(O)NO^- ](CH2)4 NH(CH2)3 NH3^+, using the procedure set forth below. The percent NO yield was then calculated for each of these NO adducts.
The apparatus comprises a first vessel 10 having an inlet 11 and an outlet 12 and contains mineral oil (or other heavy liquid) to prevent backflow. The outlet 12 of vessel 10 is connected to a first inlet 21 of second vessel 20, which also has a second inlet 22 and an outlet 23. The second vessel 20 contained either the solid NO complex or an aqueous solution of the NO complex. An addition funnel 30 is connected to the second inlet 22 of second vessel 20 so as to provide a means of introducing dilute aqueous HCl into second vessel 20. The outlet 23 of second vessel 20 is connected to the inlet 41 of condenser 40, and the outlet 42 of condenser 40 is connected to the inlet 51 of third vessel 50. The condenser 40 and third vessel 50 function to capture any mist carried through the apparatus in the gas stream. The outlet 52 of third vessel 50 is connected to drying towers 60 and 70 which contain desiccant such as calcium chloride or molecular sieves and contain an outlet 71 for gas passage.
In use, nitrogen gas was passed through the apparatus through the inlet 11 of first vessel 10 to flush oxygen from the apparatus. Acidic solution was then introduced into second vessel 20 by way of addition funnel 30, and NO gas was generated in second vessel 20. The thus generated NO gas flowed through the outlet 23 of second vessel 20, through the condenser 40, into the third vessel 50, into the drying towers 60 and 70, and out the […].
The NO gas released through the outlet 71 of drying column 70 was fed into a thermal energy analyzer (TEA), which generates a signal proportional to the quantity of NO gas present. The yield of NO gas, as a weight percent of the theoretical maximum, obtained for each of the compounds tested is given in Table III.

[7] = NO gas yield measured volumetrically in a gas buret; type: physicochemical
Experimental: In a separate series of experiments, the generated gas was also collected in a gas buret and the yields were measured volumetrically. Yields ranged from 70-90% of theoretical. For example, when 1.0 g of CH3 N(N2 O2^-)CH2 CH2 NH3^+ was added to 5 ml concentrated H2 SO4, 285 ml NO gas (85%) was trapped in the buret.

[8] = Refrigerated storage stability by combustion analysis; type: physicochemical; conditions: refrigerator, several months
Source text: Samples of compound 11 of Example 1 were stored in a refrigerator over the course of several months.

[9] = 22° C., pH 7.4, 0.1M phosphate buffer, read-out: t1/2
[10] = phosphate buffer, buffered aqueous solution, pH 7.4, 22° C., read-out: half-life (converted)

## CC(C)N(CCCN)[N+]([O-])=NO.CC(C)NCCCN
[1]
  stability as solid: not stable enough to obtain combustion analytical data

## CC(C)N/[N+]([O-])=N/O
[2]
  stability in the solid state: slow decomposition even in the solid state unless stored at -78 °C

## CCN(CC)[N+]([O-])=NO [CH3 CH2 N(N2 O2^-)CH2 CH3.Na^+, reference compound]
[3]
  % NO By Wt.: 38.7%

## CC(C)N(CCCN)[N+]([O-])=NO [Compound 1, 1-Hydroxy-2-oxo-3-(3-aminopropyl)-3-isopropyl-1-triazene]
[4]; [9]
  half-life: 1.55 h

## CNCCN(C)[N+]([O-])=NO [Compound 2, 1-Hydroxy-2-oxo-3-(N-methyl-2-aminoethyl)-3-methyl-1-triazene]
[4]; [9]
  half-life: 0.602 h
[4]; [10]
  half-life: 0.602 h
[5]
  equivalents of NO released: two equivalents
[3]
  % NO By Wt.: 40.5%
[6]
  % NO Yield: 98%

## CNCCCN(C)[N+]([O-])=NO [Compound 3, 1-Hydroxy-2-oxo-3-(N-methyl-3-aminopropyl)-3-methyl-1-triazene]
[4]; [9]
  half-life: 0.168 h
[4]; [10]
  half-life: 0.168 h

## CNCCCCN(C)[N+]([O-])=NO [Compound 4, 1-Hydroxy-2-oxo-3-(N-methyl-4-aminobutyl)-3-methyl-1-triazene]
[4]; [9]
  half-life: 0.0217 h
[4]; [10]
  half-life: 0.0217 h

## CNCCCCCCN(C)[N+]([O-])=NO [Compound 5, 1-Hydroxy-2-oxo-3-(N-methyl-6-aminohexyl)-3-methyl-1-triazene]
[4]; [9]
  half-life: 0.045 h

## CN(CCN)[N+]([O-])=NO [Compound 6, 1-Hydroxy-2-oxo-3-(2-aminoethyl)-3-methyl-1-triazene]
[4]; [9]
  half-life: 0.667 h
[4]; [10]
  half-life: 0.667 h
[5]
  equivalents of NO released: two equivalents
[3]
  % NO By Wt.: 45%
[3]; listed as CH3 N(N2 O2^-)CH2 CH2 NH3^+
  % NO By Wt.: 44.7%
[6]
  % NO Yield: 110%
[7]; 1.0 g adduct added to 5 ml concentrated H2 SO4
  volume of NO gas trapped: 285 mL
[7]; percent of theoretical, gas buret
  volumetric NO yield: 85%

## CCN(CCN)[N+]([O-])=NO [Compound 7, 1-Hydroxy-2-oxo-3-(2-aminoethyl)-3-ethyl-1-triazene]
[4]; [9]
  half-life: 5.55 h
[4]; [10]
  half-life: 5.55 h
[3]
  % NO By Wt.: 40.5%

## CCNCCN(CC)[N+]([O-])=NO [Compound 8, 1-Hydroxy-2-oxo-3-(N-ethyl-2-aminoethyl)-3-ethyl-1-triazene]
[4]; [9]
  half-life: 5.45 h
[5]
  equivalents of NO released: two equivalents
[3]
  % NO By Wt.: 34.1%

## CN(CCCN)[N+]([O-])=NO [Compound 9, 1-Hydroxy-2-oxo-3-(3-aminopropyl)-3-methyl-1-triazene]
[4]; [9]
  half-life: 0.228 h

## CCNCCCN(CC)[N+]([O-])=NO [Compound 10, 1-Hydroxy-2-oxo-3-(N-ethyl-3-aminopropyl)-3-ethyl-1-1-triazene]
[4]; [9]
  half-life: 1.2 h
[6]
  % NO Yield: 100%

## CCCN(CCCN)[N+]([O-])=NO [Compound 11, 1-Hydroxy-2-oxo-3-(3-aminopropyl)-3-propyl-1-triazene]
[4]; [9]
  half-life: 1.28 h
[5]
  equivalents of NO released: two equivalents
[6]
  % NO Yield: 110%
[8]
  change in elemental composition on storage: no change in elemental composition was observed

## CC(C)NCCCN(C(C)C)[N+]([O-])=NO [Compound 12, 1-Hydroxy-2-oxo-3-(N-isopropyl-3-aminopropyl)-3-isopropyl-1-triazene]
[4]; [9]
  half-life: 1.48 h

## NCCCN(C1CCCCC1)[N+]([O-])=NO [Compound 13, 1-Hydroxy-2-oxo-3-(3-aminopropyl)-3-cyclohexyl-1-triazene]
[4]; [9]
  half-life: 1.92 h

## NCCN(CCN)[N+]([O-])=NO [Compound 14, 1-Hydroxy-2-oxo-3,3-di (2-aminoethyl)-1-triazene]
[4]; [9]
  half-life: 56.7 h
[4]; comparison between adducts differing in R' or type
  half-life (in words): too stable to permit monitoring over a sufficient number of half-lives
[4]; fold over diethylamine/NO adduct
  half-life relative to the diethylamine/NO adduct: over 200 times
[4]; [10]
  half-life: 56 h
[5]
  equivalents of NO released: two equivalents
[3]
  % NO By Wt.: 36.8%
[6]
  % NO Yield: 97%

## NCCCN(CCCN)[N+]([O-])=NO [Compound 15, 1-Hydroxy-2-oxo-3,3-di(3-aminopropyl)-1-triazene]
[4]; [9]
  half-life: 4.73 h

## NCCCCN(CCCN)[N+]([O-])=NO [Compound 16, 1-Hydroxy-2-oxo-3-(3-aminopropyl)-3-(4-aminobutyl)-1-triazene]
[4]; [9]
  half-life: 2.75 h
[1]
  stability as solid: hygroscopic

## CCN(CC)[N+]([O-])=NO [DEA/NO]
[2]
  stability in the solid state: slow decomposition even in the solid state unless stored at -78 °C

## NCCCNCCCCN(CCCN)[N+]([O-])=NO [spermine/NO adduct]
[5]
  equivalents of NO released: two equivalents
[6]
  % NO Yield: 95%
